In patent US7528224B1, “Peptide for triggering an immune reaction against tumor cells” (Immatics Biotechnologies GmbH, priority 1999, dated 2009):
Ends that are not written are not given here.

How the values were obtained:
cytotoxic T cells = experiment: Induction of cytotoxic T cells in vitro with peptide-pulsed dendritic cells; type: cell-based, human; settings: dendritic cells incubated with 50 μg/ml synthetic peptide, autologous mononuclear cells
Experimental: As e.g. described by Brossart, P., et al., Cancer Res 58 (1998), pages 732 ff.; first of all, mononuclear cells of peripheral blood were isolated from buffy coat preparations of heparinized blood of three healthy donators by Ficoll/Paque (Gibco-BRL, Grand Island, N.Y.) density-gradient centrifugation. The cells were seeded in cell culture bowls in RP10 medium.
5×10^5 dendritic cells from 1.1 were incubated with 50 μg/ml synthetic peptide from 1.2 for two hours, washed, and incubated with 2.5×10^6 autologous, i.e. coming from the same donators, mononuclear cells of periphery blood in RP10 medium. Additionally to the control peptides and the potentially HLA-A2 binding peptides the dendritic cells were partly incubated with 50 μg/ml of a PAN-HLA-DR-binding peptide which represents a T helper epitope.
After seven days of cultivation, the cells were again stimulated by adding autologous, mononuclear cells of peripheral blood pre-incubated with the synthetic peptide from 1.2. On the first, third and fifth day, respectively, 1 ng/ml human recombinant IL-2 (Genzyme) was added. The cytokine IL-2 is necessary for the cultivation and reproduction of cytotoxic T cells. Altogether, stimulation was effected up to three times in an interval of a week.

T2 cells = experiment: 51Cr release cytotoxic T cell activity on peptide-pre-incubated T2 cells; type: cell-based, human; settings: 4 h; for killing of T2 cells pre-treated with the same peptide by the cytotoxic T cells induced with the peptide: T2 cells pre-incubated with 50 μg/ml of exactly this peptide; for killing of T2 cells pre-treated with other peptides by the cytotoxic T cells induced with the peptide: T2 cells pre-incubated with other peptides
Experimental: T2 cells which are distinguished by the fact that they can generate HLA-A2, but cannot present peptides synthesized by themselves via this MHC class I molecules, were pre-incubated with 50 μg/ml of synthetic peptide from 1.2 for two hours and marked with [^51Cr]-sodium chromate in RP10 at 37° C. for one hour. In each case 10^4 of these cells were transferred into each of a well of a 96-well-plate. Cytotoxic T cells that were generated before according to 1.3 were added, so that, respectively, an end volume of 200 μl per well was reached. Subsequently, incubation took place for four hours at 37° C. If now the cytotoxic T cells kill the cells that were labeled with ^51Cr before, they lyse these cells, and the ^51Cr contained in the cells is released. At the end of the experiment in the cell supernatants taken off, the released radioactivity is determined by counting in a β-counter. In that way, a measure for the cytotoxic activity of T cells is obtained.

Sequence | induction of cytotoxic T cells in vitro by means of dendritic cells (cytotoxic T cells) | killing of T2 cells pre-treated with the same peptide by the cytotoxic T cells induced with the peptide (T2 cells) | killing of T2 cells pre-treated with other peptides by the cytotoxic T cells induced with the peptide (T2 cells)
LLLLTVLTV [SEQ ID NO: 2] | able to induce cytotoxic T cells | could kill only those cells which were pre-treated with the peptide with the sequence SEQ ID NO: 2 | behave in the same way
STAPPVHNV [SEQ ID NO: 1] | able to induce cytotoxic T cells | able to specifically kill | not able to kill
